We go through 18 compounds from patent US9000182B2, “2H-imidazol-4-amine compounds and their use as BACE inhibitors” (AstraZeneca AB, priority 2012, dated 2015).

The subject of test [1] is sAPPβ release in SH-SY5Y cells. As to the kind of experiment: sAPPβ release assay. The test is classed as cell-based. Conditions: 17 h incubation. The procedure: SH-SY5Y cells were cultured in DMEM/F-12 with Glutamax, 10% FCS and 1% non-essential amino acids and cryopreserved and stored at −140° C. at a concentration of 7.5-9.5×10^6 cells per vial. Thaw cells and seed at a conc. of around 10000 cells/well in DMEM/F-12 with Glutamax, 10% FCS and 1% non-essential amino acids to a 384-well tissue culture treated plate, […] cell susp/well. The cell plates were then incubated for 7-24 h at 37° C., 5% CO2. The cell medium was removed, followed by addition of 30 μL compound diluted in DMEM/F-12 with Glutamax, 10% FCS, 1% non-essential amino acids and 1% PeSt to a final conc. of 1% DMSO. The compounds were incubated with the cells for 17 h (overnight) at 37° C., 5% CO2. Meso Scale Discovery (MSD) plates were used for the detection of sAPPβ release. MSD sAPPβ plates were blocked in 1% BSA in Tris wash buffer (40 μL/well) for 1 h on shake at r.t. and washed 1 time in Tris wash buffer (40 μL/well). 20 μL of medium was transferred to the pre-blocked and washed MSD sAPPβ microplates, and the cell plates were further used in an ATP assay to measure cytotoxicity. The MSD plates were incubated with shaking at r.t. for 2 h and the media discarded. 10 μL detection antibody was added (1 nM) per well followed by incubation with shaking at r.t. for 2 h and then discarded. 40 μL Read Buffer was added per well and the plates were read in a SECTOR Imager.

Test [2] has as its target T1, human β-Secretase (sBACE-Fc, soluble part AA 1-AA 460) (Homo sapiens (Human), UniProt P56817). Put plainly: TR-FRET assay. Type of test: biochemical. Conditions: standard TR-FRET assay (values without footnote a). The procedure: The β-secretase enzyme used in the TR-FRET is prepared as follows:
(§1) The enzyme (truncated form) was diluted to 6 μg/mL (stock 1.3 mg/mL) and the TruPoint BACE1 Substrate to 200 nM (stock 120 μM) in reaction buffer (NaAcetate, chaps, triton x-100, EDTA pH4.5). Enzyme and compound in dimethylsulphoxide (final DMSO concentration 5%) was mixed and pre-incubated for 10 minutes at RT. Substrate was then added and the reaction was incubated for 15 minutes at RT. The reaction was stopped with the addition of 0.35 vol Stop solution (NaAcetate, pH 9). The fluorescence of the product was measured on a Victor II plate reader with excitation wavelengths of 340-485 nm and emission wavelengths of 590-615 nm. […] The dimethylsulphoxide control, instead of test compound, defined the 100% activity level and 0% activity was defined by wells lacking enzyme (replaced with reaction buffer) or by a saturating dose of a known inhibitor, 2-amino-6-[3-(3-methoxyphenyl)phenyl]-3,6-dimethyl-5H-pyrimidin-4-one.

Test [3] addresses T1, human β-Secretase (sBACE-Fc, soluble part AA 1-AA 460). As to the kind of experiment: Diluted TR-FRET assay. Type of test: biochemical. The procedure: as §1, with “The enzyme (truncated form) was diluted to 6 μg/mL (stock 1.3 mg/mL) and the TruPoint BACE1 Substrate to 200 nM (stock 120 μM) in reaction buffer (NaAcetate, chaps, triton x-100, EDTA pH4.5).” left out, “Substrate was then added and the reaction was incubated for 15 minutes at RT.” left out

Where [4] appears, read: IC50 from the diluted FRET assay (footnote a): 50 times less enzyme, 6.5 h reaction time.

T1 sequence (P56817 22-460): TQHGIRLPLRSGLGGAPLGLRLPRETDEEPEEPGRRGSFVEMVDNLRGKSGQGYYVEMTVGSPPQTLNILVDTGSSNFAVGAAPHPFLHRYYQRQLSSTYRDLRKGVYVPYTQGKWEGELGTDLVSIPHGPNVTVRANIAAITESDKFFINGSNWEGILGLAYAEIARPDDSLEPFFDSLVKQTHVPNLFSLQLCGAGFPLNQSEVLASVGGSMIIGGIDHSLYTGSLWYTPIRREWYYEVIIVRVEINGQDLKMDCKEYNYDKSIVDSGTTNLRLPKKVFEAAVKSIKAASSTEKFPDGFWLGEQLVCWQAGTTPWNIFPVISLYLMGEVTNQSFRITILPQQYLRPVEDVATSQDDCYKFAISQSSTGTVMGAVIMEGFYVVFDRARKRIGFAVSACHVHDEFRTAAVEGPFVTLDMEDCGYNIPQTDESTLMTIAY

The compound `CC[C@@H](C)Oc1ccc2c(c1)C1(N=C(C)C(N)=N1)[C@]1(CC[C@H](OC)CC1)C2` (stereo partly drawn) [Example 18, (1r,4r)-6′-[(28)-Butan-2-yloxy]-4-methoxy-5″-methyl-3′H-dispiro[cyclohexane-1,2′-indene-1′,2″-imidazol]-4″-amine] gave an IC50 in test [1] (Homo sapiens) of 16 nM.
With `CC1=N[C@@]2(N=C1N)c1cc(OCC(C)C)ccc1C[C@]21CC[C@@H](O)CC1` (single isomer, unassigned; isomer 1) [2, isomer 1], the IC50 in test [2] was found to be 13 nM.
For the compound `CO[C@H]1CC[C@]2(CC1)Cc1ccc(OCC(C)F)cc1C21N=C(C)C(N)=N1` (stereo partly drawn) [Example 14, (1r,4r)-6′-(2-Fluoropropoxy)-4-methoxy-5″-methyl-3′H-dispiro[cyclohexane-1,2′-indene-1′,2″-imidazol]-4″-amine], the IC50 in test [3] was determined as 6.7 nM; in test [1] (Homo sapiens), 2.5 nM.
Consider `CC1=N[C@]2(N=C1N)c1cc(-c3cc(Cl)cc(C#N)c3)ccc1C[C@]21CC[C@@H](O)CC1` (single isomer, unassigned; isomer 1) [15, isomer 1], for which the values for the IC50 in test [3] (setting [4]) and in test [1] were 3.2 nM and 1.6 nM, respectively.
Take `CO[C@H]1CC[C@]2(CC1)Cc1ccc(C#CC(C)C)cc1[C@]21N=C(C)C(N)=N1` (single isomer, unassigned; isomer 1) [9, isomer 1]: in test [1], the IC50 is 0.7 nM.
In test [2], `CC1=N[C@@]2(N=C1N)c1cc(OCCCF)ccc1C[C@]21CC[C@@H](OC(F)F)CC1` (single isomer, unassigned; isomer 2) [13, isomer 2] came in with an IC50 of 2900 nM.
As to `CO[C@H]1CC[C@]2(CC1)Cc1ccc(OCC(C)(F)F)cc1C21N=C(C)C(N)=N1` (stereo partly drawn) [Example 3, (1r,4r)-6′-(2,2-Difluoropropoxy)-4-methoxy-5″-methyl-3′H-dispiro[cyclohexane-1,2′-indene-1′,2″-imidazol]-4″-amine], the IC50 in test [3] is 6.7 nM; in test [1] (Homo sapiens), 2.4 nM.
`CO[C@H]1CC[C@]2(CC1)Cc1ccc(OCCC(F)(F)F)cc1[C@@]21N=C(C)C(N)=N1` (single isomer, unassigned; isomer 1) [11, isomer 1] showed an IC50 in test [1] of 0.7 nM.
In the case of `CC1=N[C@@]2(N=C1N)c1cc(-c3cc(Cl)cc(C#N)c3)ccc1C[C@]21CC[C@@H](O)CC1` (single isomer, unassigned; isomer 2) [15, isomer 2], the IC50 was found to be 780 nM in test [2] and 216 nM in test [1].
For `CC1=N[C@@]2(N=C1N)c1cc(Br)ccc1C[C@]21CC[C@@H](O)CC1` (single isomer, unassigned; isomer 1) [5, isomer 1], in that order: 270 nM and 96 nM.
With `CO[C@H]1CC[C@]2(CC1)Cc1ccc(O)cc1[C@@]21N=C(C)C(N)=N1` [Example 19, (1r,1′R,4R)-4″-Amino-4-methoxy-5″-methyl-3′H-dispiro[cyclohexane-1,2′-indene-1′,2″-imidazol]-6′-ol], inhibition in test [2] was half-maximal at 1300 nM (IC50).
For the compound `CC1=N[C@]2(N=C1N)c1cc(OCCCF)ccc1C[C@]21CC[C@@H](OC(F)F)CC1` (single isomer, unassigned; isomer 1) [13, isomer 1], the 50% inhibitory concentration (IC50) in test [3] (setting [4]) came out at 3 nM; in test [1], 1.6 nM.
In turn, `CO[C@H]1CC[C@]2(CC1)Cc1ccc(C#CC3CCC3)cc1[C@]21N=C(C)C(N)=N1` (single isomer, unassigned; isomer 1) [7, isomer 1] displayed an IC50 in test [1] of 2 nM.
On to `CO[C@H]1CC[C@]2(CC1)Cc1ccc(C#CC3CCC3)cc1C21N=C(C)C(N)=N1` (mixture of isomers) [Example 6, (1r,4r)-6′-(Cyclobutylethynyl)-4-methoxy-5″-methyl-3′H-dispiro[cyclohexane-1,2′-indene-1′,2″-imidazol]-4″-amine], for which the half-inhibitory concentration (IC50) in test [1] (Homo sapiens) turned out to be 2.1 nM.
For `CO[C@H]1CC[C@]2(CC1)Cc1ccc(C#CC(C)C)cc1C21N=C(C)C(N)=N1` (mixture of isomers) [Example 8, (1r,4r)-4-Methoxy-5″-methyl-6′-(3-methylbut-1-yn-1-yl)-3′H-dispiro[cyclohexane-1,2′-indene-1′,2″-imidazol]-4″-amine], in test [1] (Homo sapiens), the IC50 was determined as 1.6 nM.
Regarding `CC1=NC2(N=C1N)c1cc(OCCCF)ccc1C[C@]21CC[C@@H](OC(C)C)CC1` (stereo partly drawn) [Example 17, (1r,4r)-6′-(3-Fluoropropoxy)-5″-methyl-4-(propan-2-yloxy)-3′H-dispiro[cyclohexane-1,2′-indene-1′,2″-imidazol]-4″-amine], in test [2], the IC50 worked out at 250 nM.
In test [2], `CC1=NC2(N=C1N)c1cc(Br)ccc1C[C@]21CC[C@@H](OC(C)C)CC1` (stereo partly drawn) [Example 16, (1r,4r)-6′-Bromo-5″-methyl-4-(propan-2-yloxy)-3′H-dispiro[cyclohexane-1,2′-indene-1′,2″-imidazol]-4″-amine] returned an IC50 of 3700 nM.
In test [1] (Homo sapiens), `CO[C@H]1CC[C@]2(CC1)Cc1ccc(OCCC(F)(F)F)cc1C21N=C(C)C(N)=N1` (stereo partly drawn) [Example 10, (1r,4r)-4-Methoxy-5″-methyl-6′-(3,3,3-trifluoropropoxy)-3′H-dispiro[cyclohexane-1,2′-indene-1′,2″-imidazol]-4″-amine] displayed an IC50 of 0.6 nM.
